The values that follow come from ChEMBL document CHEMBL5233243, “Design and discovery of boronic acid drugs” (Eur J Med Chem, 2020).

Data set [1] has as its target Human immunodeficiency virus type 1 protease (Human immunodeficiency virus 1, UniProt Q72874). Nature of the data set: Inhibition of HIV-1 protease.
Data set [2] deals with Human immunodeficiency virus. As to the kind of experiment: Antiviral activity against HIV infected in human MT-2 cells. It is filed as functional, organism-based. Particulars: Human immunodeficiency virus 1, MT2.
A short description of data set [3]: Solubility of compound at pH 2. It is filed as physicochemical. The settings on record: buffer.
Data set [4] is described as follows: Inhibition of beta-lactamase AmpC (unknown origin). Details: species or system Bacteria.
Data set [5] concerns Escherichia coli. As to the kind of experiment: Antibacterial activity against Escherichia coli. The format is functional.
Data set [6] deals with MCF7. As to the kind of experiment: Antiproliferative activity against human MCF7 cells assessed as inhibition of cell growth incubated for 48 hrs by SRB assay. Particulars: MCF7, 48 h. It is filed as functional, cell-based. On the technique in general: The SRB assay estimates cell density from bound dye.
The target in data set [7] is T1, Neutrophil elastase (Homo sapiens, UniProt P08246).
T1 sequence (P08246 whole entry): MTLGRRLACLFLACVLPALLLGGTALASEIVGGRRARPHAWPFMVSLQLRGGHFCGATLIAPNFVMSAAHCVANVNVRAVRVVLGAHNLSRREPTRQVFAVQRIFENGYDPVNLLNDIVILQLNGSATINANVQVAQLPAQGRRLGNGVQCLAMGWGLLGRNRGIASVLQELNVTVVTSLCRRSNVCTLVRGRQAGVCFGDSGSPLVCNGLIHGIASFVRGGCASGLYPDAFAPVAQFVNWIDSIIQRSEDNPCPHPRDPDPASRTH
As to the kind of experiment: Inhibition of human neutrophil elastase.

Data set [8] addresses Autotaxin (Homo sapiens, UniProt Q13822). As to the kind of experiment: Inhibition of autotaxin (unknown origin).

Molecules are shown by their SMILES. In brackets after ≈: the same amount, converted by molar mass. Residues, ends and D or L forms follow the SMILES beside them. *: point of attachment. CF3 = FC(F)(F)*; Moc = COC(=O)* Where only a bound is given, the exact number is not on record here.

Usually Ki stands for the equilibrium dissociation constant of an inhibitor or competing ligand from its target. High values mean lower affinity, low ones higher affinity. Broadly, the IC50 is the concentration that inhibits the measured activity by half. The compound `CC(C)CN(C[C@@H](O)[C@H](Cc1ccccc1)NC(=O)OC1C2COC3OCC1C3C2)S(=O)(=O)c1ccc(B(O)O)cc1` (stereo partly drawn) yielded a Ki in data set [1] of 0.0155 nM. The same compound showed an IC50 in data set [2] of 37.7 nM.

The solubility is the dissolved amount per volume that the medium holds. Compound `COc1ccc(/C=C\c2cc(OC)c(OC)c(OC)c2)cc1B(O)O` came in with a solubility in data set [3] of 33.8 µg/mL (≈ 98.2 µM).

As to `O=S(=O)(Cc1ccc(-c2nnn[nH]2)nc1)NCB(O)O`, in data set [4], the inhibitory constant (Ki) turned out to be 0.8 nM.

The term MIC denotes the smallest concentration in the dilution series that meets the test's criterion for growth inhibition. Read a low MIC as a more susceptible organism. Turning to `OB(O)c1cnn(-c2cc(Cl)ncn2)c1`, the affinity in data set [4], expressed as Ki, was 10 nM. In addition, the MIC in data set [5] stood at 1 µg/mL (≈ 4.46 µM).

`CC(C)CN(C[C@@H](O)[C@H](Cc1ccccc1)NC(=O)O[C@H]1CO[C@H]2OCC[C@H]21)S(=O)(=O)c1ccc(C(=O)O)cc1` showed a Ki in data set [1] of 0.0129 nM. In addition, the concentration for half-maximal inhibition (IC50) in data set [2] was > 1000 nM.

For `COc1ccc(/C=C\c2cc(OC)c(OC)c(OC)c2)cc1O` [COMBRETASTATIN A4], the IC50 in data set [6] was determined as 32 nM. In addition, in data set [3], the concentration in solution (solubility) was 18.9 µg/mL (≈ 59.7 µM).

`COC(=O)N[C@H](C(=O)N1CCC[C@H]1C(=O)N[C@H](C(=O)C(F)(F)F)C(C)C)C(C)C` (Moc-Val-Pro-Val-CF3): in data set [7], the IC50 came out at 135 nM.

Compound `COC(=O)N[C@H](C(=O)N1CCC[C@H]1C(=O)N[C@H](B(O)O)C(C)C)C(C)C` displayed a half-inhibitory concentration (IC50) in data set [7] of 0.27 nM.

As for `COc1cc(/C=C2\SC(=O)N(Cc3ccc(F)cc3)C2=O)ccc1OCc1ccc(B(O)O)cc1`, in data set [8], the IC50 stood at 28 nM.
